Drawing on patent publication US8846024B2, “3′-[(2Z)-[1-(3,4-dimethylphenyl)-1,5-dihydro-3-methyl-5-oxo-4H-pyrazol-4-ylidene]hydrazino]-2′-hydroxy-[1,1′-biphenyl]-3-carboxylic acid bis-(monoethanolamine)” (GlaxoSmithKline LLC, priority 2002, dated 2014), this text covers solubility in water and solubility for two compounds.

Data set [1] is described as follows: Solubility of the free acid in water (stated in description). Particulars: stated as approximate in the description. The class given is physicochemical.
The nature of data set [2]: Relative solubilities in water, 0.1% HCl and methanol. It is filed as physicochemical. The settings on record: 25 °C, 25 deg. As to the method: The solubility of 3′-[(2Z)-[1-(3,4-dimethylphenyl)-1,5-dihydro-3-methyl-5-oxo-4H-pyrazol-4-ylidene]hydrazino]-2′-hydroxy-[1,1′-biphenyl]-3-carboxylic acid as the free acid (Compound A) and as the bis-(monoethanolamine) salt (Compound B) was determined in three different systems: water, 0.1 HCl and methanol.

The mark [3] stands for this setting: organic solvent or mixture, solvent methanol, read-out: Solubility at 25 deg, methanol.
The mark [4] stands for this setting: simulated gastric fluid, solvent 0.1% HCl, read-out: Solubility at 25 deg, 0.1% HCl.
[5] abbreviates: solvent water, read-out: Solubility at 25 deg, Water.

Values after ≈ are worked out from the molar mass of the structure shown. Read-outs that look alike come from different tables or passages of the source.

By solubility is commonly meant how much of the substance goes into solution per volume.

With `CC1=NN(c2ccc(C)c(C)c2)C(=O)/C1=N\Nc1cccc(-c2cccc(C(=O)O)c2)c1O` [Compound A, 3′-[(2Z)-[1-(3,4-dimethylphenyl)-1,5-dihydro-3-methyl-5-oxo-4H-pyrazol-4-ylidene]hydrazino]-2′-hydroxy-[1,1′-biphenyl]-3-carboxylic acid], the solubility in water entry in data set [1] is listed as “approximately 5 micrograms per milliliter”. Moreover, the figures for the solubility in data set [2] (setting [3]), in data set [2] (setting [4]) and in data set [2] (setting [5]) were 1900 µg/mL (≈ 4290 µM), under 1 µg/mL and under 1 µg/mL, respectively.
As for `CC1=NN(c2ccc(C)c(C)c2)C(=O)/C1=N\Nc1cccc(-c2cccc(C(=O)O)c2)c1O.NCCO.NCCO` [Compound B, 3′-[(2Z)-[1-(3,4-dimethylphenyl)-1,5-dihydro-3-methyl-5-oxo-4H-pyrazol-4-ylidene]hydrazino]-2′-hydroxy-[1,1′-biphenyl]-3-carboxylic acid bis-(monoethanolamine)], the solubility in data set [2] (setting [3]) is 6400 µg/mL; in data set [2] (setting [4]), under 1 µg/mL; in data set [2] (setting [5]), 14200 µg/mL.
